Laboratory results: patent publication US8916686B2, “TDF-related compounds and analogs thereof” (Thrasos Innovation, Inc., priority 2004, dated 2014)
Read-outs that look alike come from different tables or passages of the source.

Assays:
ALK-3 = ALK-3 (Homo sapiens, UniProt P36894); assay: Radioligand receptor binding assay (competition with 125I-labeled TDF-1)
Description: General protocol: These assays are based on competition between ^125I-labeled TDF-1 (BMP-7 or OP-1) and candidate TDFRP compounds or unlabeled TDF-1 for binding to respective receptors (ALK-3, ALK-6 or BMPR-2). In brief, the procedure involves immobilization of receptor on 96 well Removawell plates, blocking the wells with 3% BSA in PBS and subsequently washing the wells. Increasing concentrations of unlabeled TDF-1 or TDFRP compounds or control (unlabeled TDF-1) prepared in binding buffer are then added. Incubate plate for 1 hour at room temperature, and then add a fixed amount of ^125I-labeled TDF-1 (250,000 to 350,000 cpm) to the wells and further incubate in cold (4° C.) for 20 hours. Aspirate the contents of the wells and wash the wells four times with a wash buffer, and count the receptor bound ^125I-labeled TDF-1 in an auto gamma counter.
Using this procedure, TDFRP compound binding to select ALK receptors are assessed. Accordingly, TDFRP compounds that preferentially bind select ALK receptors can be identified. For example, TDFRP compounds that preferentially bind to ALK-3 receptor compared with binding to other ALK receptors, e.g., ALK-6 (FIG. 1 and FIG. 11).

[1] = tested on: rat after ligation of the coronary artery; assay: LAD occlusion model of myocardial injury (ischemia/reperfusion); format: in vivo
Method: The efficacy of compound SEQ ID #45 in ameliorating the effects of myocardial ischemia was investigated in the rat after ligation of the coronary artery. […] unmanipulated rats, sorted into two large groups by initial body weight (>300 g pre-surgery) were evaluated. Fourteen rats underwent surgery on week, 12 rats underwent surgery on week 2 and rats were sorted into 3 treatment groups: Group 1, PBS; Group 2, positive control TDF-1; Group 3, test article SEQ ID #45 (see Table X).
Three days prior to surgery, a serum sample was collected from the tail vein of each rat (pre-bleed). On the day of surgery, each rat was administered compound intravenously 2 hr prior to surgery. Surgery was performed sequentially after intubation and ventilation with 0.5% isofluorane anesthetic. Lead II ECG was monitored throughout the surgery. A thoracotomy was performed and the main left coronary artery was occluded for 20 min using a snare technique (FIG. 16). Successful occlusion of the artery was confirmed by ST elevation in lead II ECG within the first 5 minutes of ligation, and by frequent ventricular arrhythmia after 10 minutes of ligation. The snare was released to restore blood flow. The original suture loop was left in place for subsequent re-occlusion on Day 7. After initiation of reperfusion, the chest cavity was closed with 2 layers of suture. Rats were weaned from the ventilator and observed until fully conscious and mobile. Antibiotic (QD) and analgesic (Q8D) were provided. Additional serum samples were collected 6, 24, 72 and 120 hours post occlusion. Additional compound, positive control or vehicle treatments were delivered by intravenous injection in the tail vein at 24, 72 and 120 hours post occlusion.
On Day 7, each rat was anesthetized (ketamine:xyline), the chest cavity re-opened and a terminal blood sample (1 ml) was withdrawn from the abdominal vein. Gross pathology (i.e. inflammation) was noted and graded on a 4 point inflammation scale: 0=no inflammation, 1=slight, 2=moderate, 3=severe and 4=complete pericarditis. The left coronary artery was then re-occluded using the existing stitch and a concentrated solution of Evans Blue dye in saline (20 mg/ml; 0.5 ml/rat) was injected into the heart apex to stain the non-ischemic cardiac tissue blue. The heart was then arrested by injection of a saturated solution of potassium chloride into the right ventricle. The heart was then excised, wrapped in cellophane and stored at −20° C. for 1.5 hour. The cold heart was cut into 10 cross-sectional slices (2 mm/slice) and each section was numbered and incubated separately in triphenyltetrazolium chloride (1% TTC in PBS) for 10 minutes at 37° C. prior to fixing in 4% formaldehyde. Subsequently, each slice was photographed. For each slice, the “area at risk (AR)” and the “area occupied by necrosis (AN)” were measured by morphometry. The ratio of AN to AR is a measure of the degree of damage resulting from the occlusion (FIG. 17A-FIG. 17B).

Sequence of ALK-3 (P36894 24-532, species assumed): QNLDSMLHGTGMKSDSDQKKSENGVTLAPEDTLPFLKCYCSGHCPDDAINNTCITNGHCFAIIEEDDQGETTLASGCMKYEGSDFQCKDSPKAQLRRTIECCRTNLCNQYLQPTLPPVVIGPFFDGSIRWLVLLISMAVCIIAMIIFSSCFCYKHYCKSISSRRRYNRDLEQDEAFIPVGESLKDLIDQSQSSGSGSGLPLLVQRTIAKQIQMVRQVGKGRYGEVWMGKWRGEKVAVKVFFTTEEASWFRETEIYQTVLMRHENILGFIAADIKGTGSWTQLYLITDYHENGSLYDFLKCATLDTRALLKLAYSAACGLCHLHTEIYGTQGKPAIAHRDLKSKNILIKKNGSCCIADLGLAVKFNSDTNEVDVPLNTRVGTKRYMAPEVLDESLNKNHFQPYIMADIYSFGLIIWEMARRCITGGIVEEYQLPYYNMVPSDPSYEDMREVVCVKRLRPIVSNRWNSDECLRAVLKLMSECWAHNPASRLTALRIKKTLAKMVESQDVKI

**Q.** For CYFDDSSNVLCKKYRS [SEQ ID NO 45], which “differential binding to Type I receptors (ALK-3 compared to ALK-6)” value (ALK-3) is on record?
**A.** selectively binds to ALK-3

**Q.** And the “differential binding to Type I receptors (ALK-3 compared to ALK-6)” value (ALK-3; listed as SEQ ID NO:45)?
**A.** binds preferentially to BMP type I receptors (ALK3)

**Q.** And the “degree of cardiac inflammation” value ([1]; LAD occlusion model)?
**A.** reduces the degree of cardiac inflammation

**Q.** What about the “necrotic area to area at risk ratio (IA/AR)” value ([1]; LAD occlusion model) of the same sequence?
**A.** reduces the necrotic area to area at risk ratio (IA/AR)

**Q.** What about the “reduction in inflammation score as compared to PBS-treated animals” value ([1]; day 7, 10 mg/kg i.v., 4 point inflammation scale) of the same sequence?
**A.** 78%

**Q.** And the “reduction in AN/AR ratio as compared to PBS-treated animals” value ([1]; day 7, compound 10 mg/kg i.v., rhmBMP-7 160 μg/kg i.v.)?
**A.** 84%

**Q.** And the “inflammation and cytotoxic effects toward cardiomyocytes following myocardial infarction” value ([1]; myocardial ischemia and reperfusion injury)?
**A.** ameliorate inflammation and cytotoxic effects toward cardiomyocytes
